Results taken from US7105550B2, “2,4-disubstituted thiazolyl derivatives” (priority 2000, dated 2006).

Tests used:
TNF-α production = experiment: In vitro inhibition of TNF-α production in human blood; assay type: cell-based; settings: human whole blood, lipopolysaccharide stimulation
Method: (§1) Human Whole Blood Stimulation
(§2) Peripheral blood from healthy male donors was drawn into heparinized syringes (12.5 U heparin/ml). Blood samples were three-fold diluted in RMPI 1640 medium (Life Technologies, Belgium) supplemented with 2 mM L-glutamine, 100 U/ml penicillin and 100 μg/ml streptomycin, and 300 μl fractions were distributed in 24-well multidisc plates (Nunc, Roskilde, Denmark). Blood samples were preincubated (60 minutes at 37° C.) in a humidified 6% CO2-atmosphere with 100 A1 of drug solvent (final concentration 0.02% dimethylsulfoxide in RPMI 1640) or with 100 μl of an appropriate dose of test compound before being stimulated by the addition of 100 μl of lipopolysaccharide at a final concentration of 100 ng/ml. After 6 hours, cell-free supernatant fluids were collected by centrifugation and stored at −20° C. until tested for the presence of TNF-α.
(§3) Cytokine protein concentrations were determined by sandwich ELISA as described in Van Wauwe et al. (1996, Inflamm Res, 45, 357–363). Murine monoclonals used as capture antibodies to human cytokines were obtained from R&D Systems (Abingdon, United Kingdom) and code named MAB210 and MAB611 for TNF-α and IL-12 respectively. Butinylated goat polyclonal antibodies used to detect human cytokines were from R&D Systems (BAF210, BAF219). Cytokine levels were calculated from standard curves using recombinant cytokines supplied by R&D Systems.

IL-12 production = experiment: In vitro inhibition of IL-12 production in human blood; assay type: cell-based; settings: human whole blood, lipopolysaccharide 100 ng/ml, 24 hours
Method: as §1
as §2, with “100 μl” for “100 A1”, “After 24” for “After 6”, “of IL-12.” for “of TNF-α.”
as §3

Structure (SMILES) | % inhib. TNF-α (TNF-α production; test dose 1 × 10^−6 M) | % inhib. TNF-α (TNF-α production; test dose 1 × 10^−7 M) | % inhib. IL-12 (p40) (IL-12 production; test dose 1 × 10^−6 M) | % inhib. IL-12 (p40) (IL-12 production; test dose 1 × 10^−7 M)
Cl.c1ccc(Nc2nc(-c3c[nH]c4ccccc34)cs2)cc1 [Compound 9] | 37% | 39% | 49% | 53%
Cc1cccc(Nc2nc(-c3cnc4ccccn34)cs2)c1.Cl [Compound 31] | 55% | 49% | 66% | 68%
Cc1ccc(Nc2nc(-c3cnc4ccccn34)cs2)cc1.Cl [Compound 39] | 53% | 59% | 64% | 71%
Cl.Clc1cccc(Nc2nc(-c3cnc4ccccn34)cs2)c1Cl.O [Compound 45] | 49% | 48% | 64% | 65%
Br.COc1ccc(Nc2nc(-c3cnc4ccccn34)cs2)cc1 [Compound 74] | 56% | 48% | 70% | 67%
Br.FC(F)(F)c1cccc(Nc2nc(-c3cnc4ccccn34)cs2)c1 [Compound 81] | 51% | 47% | 65% | 67%
Cl.Cl.Clc1cccc(Nc2nc(-c3c[nH]c4ncccc34)cs2)c1Cl [Compound 166] | 48% | 37% | 62% | 55%
Brc1cccc(Nc2nc(-c3cnc4ccccn34)cs2)c1 [Compound 466] | 57% | 49% | 95% | 86%
Cc1ccc(Nc2nc(-c3cnc4ccccn34)cs2)cc1Cl.Cl [Compound 476] | 58% | 53% | 75% | 71%
Brc1ccc(Nc2nc(-c3cnc4ccccn34)cs2)cc1.Cl [Compound 509] | 46% | 54% | 64% | 68%
Br.Cc1ncc(-c2csc(Nc3ccc(Cl)nc3)n2)n1C [Compound 527] | 37% | 43% | 61% | 66%
Cl.Fc1cccc(-c2csc(Nc3cccc(C(F)(F)F)c3)n2)c1 [Compound 643] | 64% | 59% | 75% | 72%
Br.FC(F)(F)c1cccc(Nc2nc(-c3cnc4ccccc4c3)cs2)c1.O [compound 100] | 43% | 41% | 53% | 51%
Br.FC(F)(F)c1cccc(Nc2nc(-c3cccnc3)cs2)c1 [compound 101] | 54% | 53% | 62% | 65%
Br.Cc1cccc(Nc2nc(-c3cnc4cnccn34)cs2)c1.O [compound 115] | 58% | 53% | 75% | 67%
Br.Cc1cccc(Nc2nc(-c3cnn4ccccc34)cs2)c1 [compound 119] | 49% | 49% | 62% | 62%
Br.Cc1ccc(Nc2nc(-c3cnc4ncccn34)cs2)cc1Cl [compound 286] | 50% | 48% | 60% | 63%
Cl.Clc1cccc(Nc2nc(-c3ncc4ccccn34)cs2)c1Cl [compound 410] | 39% | 43% | 53% | 58%
FC(F)(F)c1cccc(Nc2nc(-c3cncnc3)cs2)c1 [compound 517] | 61% | 57% | 74% | 68%
Cl.FC(F)(F)c1cccc(Nc2nc(-c3ccoc3)cs2)c1 [compound 518] | 38% | 44% | 62% | 59%
Cl.FC(F)(F)c1cccc(Nc2nc(-c3cnc4sccn34)cs2)c1 [compound 549] | 50% | 47% | 74% | 71%
Cl.Clc1cccc(Nc2nc(-c3cnc4sccn34)cs2)c1Cl [compound 551] | 44% | 40% | 71% | 71%
COc1ccc(Nc2nc(-c3cnc4ccccn34)cs2)cn1 [compound 573] | 53% | 45% | 67% | 61%
Cc1ccc(Nc2nc(-c3cnc4ccccn34)cs2)cn1.Cl.Cl.O.O [compound 577] | 50% | 49% | 77% | 71%
Cl.c1ccn2c(-c3csc(Nc4ccc5c(c4)CCO5)n3)cnc2c1 [compound 579] | 49% | 50% | 72% | 75%
Cl.FC(F)(F)c1cncc(Nc2nc(-c3cnc4ccccn34)cs2)c1 [compound 584] | 53% | 49% | 75% | 68%
Cl.c1ccn2c(-c3csc(Nc4ccc5ncsc5c4)n3)cnc2c1 [compound 587] | 56% | 56% | 79% | 75%
